This is an account of results in ChEMBL document CHEMBL5244213, “Current advances in drug discovery for Chagas disease” (Eur J Med Chem, 2018).

Data set [1] has as its system Trypanosoma cruzi. The experiment in a line: Antitrypanosomal activity against Trypanosoma cruzi Y […] transfected in African green monkey Vero cells assessed as inhibition of […] viability measured after 48 hrs by DAPI staining based fluorescence microscopic assay. The data set is classed as functional, organism-based.

In data set [2] the test system is Trypanosoma cruzi. The data set is described as follows: Antitrypanosomal activity against Trypanosoma cruzi […] assessed as inhibition of […] viability. The data set is classed as functional, organism-based.
Data set [3] concerns Trypanosoma cruzi. The data set is described as follows: Antitrypanosomal activity against Trypanosoma cruzi Y intracellular amastigotes assessed as inhibition of intracellular amastigotes viability at 10 uM measured after 72 hrs relative to control. In kind it is functional.
A short description of data set [4]: Selectivity index, ratio of IC50 for cytotoxicity against mouse J774.1 cells to IC50 for antitrypanosomal activity against Trypanosoma cruzi Tulahuen 2 […]. The data set is classed as toxicity, cell-based. As to conditions: read-out: Ratio IC50.
The subject of data set [5] is Trypanosoma cruzi. The data set is described as follows: Antitrypanosomal activity against Trypanosoma cruzi Tulahuen 2 intracellular epimastigotes assessed as viability of […] measured after 5 days by absorbance based analysis. The data set is classed as functional, organism-based. The settings on record: Tulahuen 2, 120 h.
Data set [6] deals with Trypanosoma cruzi. The experiment in a line: Antitrypanosomal activity against Trypanosoma cruzi Sylvio X-10 intracellular amastigotes transfected in African green monkey Vero cells assessed as inhibition of intracellular amastigotes viability measured after 72 hrs by giemsa-staining based analysis. In kind it is functional, organism-based. As to conditions: Sylvio X-10, Vero.

The nature of data set [7]: Selectivity index, ratio of IC50 for cytotoxicity against African green monkey Vero cells to IC50 for antitrypanosomal activity against Trypanosoma cruzi X-10 intracellular amastigotes transfected in African green monkey Vero cells. In kind it is toxicity, cell-based. The settings on record: read-out: Ratio IC50.
Data set [8] relates to Trypanosoma cruzi. The experiment in a line: Antitrypanosomal activity against Trypanosoma cruzi Y intracellular amastigote transfected in monkey LLC-MK2 cells assessed as inhibition of intracellular amastigote viability measured after 24 hrs by Neubauer chamber based analysis. The data set is classed as functional, organism-based. As to conditions: LLC-MK2, 24 h.
In data set [9] the test system is Trypanosoma cruzi. The experiment in a line: Antitrypanosomal activity against Trypanosoma cruzi Y […] transfected in monkey LLC-MK2 cells assessed as inhibition of […] viability measured after 24 hrs by Neubauer chamber based analysis. As to conditions: LLC-MK2, 24 h. In kind it is functional, organism-based.
Data set [10] can be described thus: Selectivity index, ratio of IC50 for cytotoxicity against monkey LLC-MK2 cells to IC50 for antitrypanosomal activity against Trypanosoma cruzi Y intracellular amastigote transfected in monkey LLC-MK2 cells. The data set is classed as toxicity, cell-based. As to conditions: read-out: Ratio IC50.
The nature of data set [11]: Selectivity index, ratio of IC50 for cytotoxicity against monkey LLC-MK2 cells to IC50 for antitrypanosomal activity against Trypanosoma cruzi Y […] transfected in monkey LLC-MK2 cells. The settings on record: read-out: Ratio IC50. In kind it is toxicity, cell-based.
The subject of data set [12] is Trypanosoma cruzi. The data set is described as follows: Antitrypanosomal activity against Trypanosoma cruzi Tulahuen CL2 intracellular amastigotes transfected in human MRC5 cells assessed as inhibition of intracellular amastigotes viability using […] substrate measured after 7 days by chlorophenol red […] staining based analysis. In kind it is functional, organism-based. As to conditions: Tulahuen CL2, MRC5, 168 h.

Data set [13] in a line: Selectivity index, ratio of IC50 for cytotoxicity against African green monkey Vero cells to IC50 for antitrypanosomal activity against Trypanosoma cruzi Dm28c intracellular amastigotes transfected in African green monkey Vero cells. In kind it is toxicity, cell-based. The settings on record: read-out: Ratio IC50.
Data set [14] concerns Trypanosoma cruzi. The experiment in a line: Antitrypanosomal activity against Trypanosoma cruzi Dm28c […] transfected in African green monkey Vero cells assessed as inhibition of […] viability measured after 24 hrs by MTT assay. The data set is classed as functional, organism-based. On the technique in general: Tetrazolium assays rely on reduction of a dye to a coloured formazan, in cell work by metabolically active cells.

Data set [15] can be described thus: Selectivity index, ratio of IC50 for cytotoxicity against African green monkey Vero cells to IC50 for antitrypanosomal activity against Trypanosoma cruzi Dm28c […] transfected in African green monkey Vero cells. The settings on record: read-out: Ratio IC50. In kind it is toxicity, cell-based.
The subject of data set [16] is Trypanosoma cruzi. The experiment in a line: Antitrypanosomal activity against Trypanosoma cruzi Dm28c intracellular amastigotes transfected in African green monkey Vero cells assessed as inhibition of intracellular amastigotes viability measured after 24 hrs by MTT assay. In kind it is functional, organism-based.

What is called EC50 is the concentration needed to bring the measured effect to its halfway point. For the compound `O=C(OCCCCCCCCCC[P+](c1ccccc1)(c1ccccc1)c1ccccc1)c1cc(O)c(O)c(O)c1`, the EC50 in the data set with Trypanosoma cruzi [1] is 1000 nM.

The IC50 is the concentration at which inhibition is half-maximal. Usually inhibition stands for how much of the control response was suppressed. For `COc1cccc(Nc2c(C#N)cnc3ccc(Cl)cc23)c1`, the IC50 in the data set with Trypanosoma cruzi [2] was less than 1000 nM. Moreover, the inhibition at 10 µM in the data set on Trypanosoma cruzi [3] worked out at 65%.

Regarding `O=C(OCCCCCCCCCCCC[P+](c1ccccc1)(c1ccccc1)c1ccccc1)c1cc(O)c(O)c(O)c1`, the EC50 in the data set with Trypanosoma cruzi [1] is 1000 nM.

On to `O=C(CS/C(C(=O)c1ccc2ccccc2c1)=C1\C=C(c2ccc(O)cc2)SS1)c1ccc2ccccc2c1`, for which the selectivity ratio in data set [4] was determined as 12.8. Besides, the IC50 with Trypanosoma cruzi [5] came out at 4900 nM.

`C=CCn1c(C(=O)N2CCN(C/C=C/c3ccccc3)CC2)cs\c1=N/N=C/C=C/c1ccco1`: the IC50 in the data set on Trypanosoma cruzi [6] turned out to be 700 nM. For the same compound, the selectivity ratio in [7] came to 433.

In the case of `N/C(S)=N/N=C/c1ccc([N+](=O)[O-])cc1`, the IC50 in the data set on Trypanosoma cruzi [8] turned out to be 11800 nM; with Trypanosoma cruzi [9] it was 1430 nM. Further, the figures for the selectivity ratio in data set [10] and in data set [11] were 11.6 and 26.2, respectively.

As for `CCOc1cccc2sc(N(Cc3cccnc3)C(=O)C3CCCCC3)nc12`, in the data set with Trypanosoma cruzi [12], the concentration for half-maximal inhibition (IC50) turned out to be 160 nM.

Consider `CC1(C(CC(=O)/C=C/c2ccccc2)c2ccccc2)N=C(c2ccccc2)OC1=O` (configuration not stated), for which the selectivity ratio in data set [13] was 95; in [15], 6.74. The IC50 was 33000 nM with Trypanosoma cruzi [14] and 2340 nM in the data set with Trypanosoma cruzi [16].
